{"source": "patent US20050004155A1", "about": "“Use of methylnaltrexone to treat irritable bowel syndrome” (priority 2003, published 2005)", "key": {"normal subjects [1]": {"tested_on": "normal subjects", "assay": "Adverse effects during repeated intravenous dosing", "type": "in vivo, human", "details": "12 doses of 0.3 mg/kg every 6 hours intravenous", "experimental": "(§1) With approval from the Institutional Review Board, 12 normal subjects (8 males and 4 non-pregnant females) participated in a controlled trial. The mean age was 29.3±5.8 (mean+/−standard deviation [SD]) years. […] Subjects were administered 12 consecutive doses of methylnaltrexone at a dosage rate of 0.3 mg/kg every 6 hours via intravenous injection. Methylnaltrexone was dissolved in isotonic saline for administration in this study. No other excipients were present in the administered solution. Oral-cecal transit time was measured prior to the first dose and after the last dose, following repeated dosing for 3 days, using a lactulose hydrogen breath test (Yuan, C. S., et al., Clin. Pharmacol. Ther. 1996;59:469-475). A subjective rating test for possible opioid agonist effects was also employed (Yuan, C. S., et al., Drug Alcohol Dependence 1998;52:161-165). […] The reduction in the means was statistically significant at the level of P<0.05 using the paired t-test and the Wilcoxon signed rank test. […] The absence of statistically significant changes in overall subjective opioid ratings is consistent with the lack of penetration into the central nervous system by methylnaltrexone."}, "normal subjects [2]": {"tested_on": "normal subjects", "assay": "Oral-cecal transit time by lactulose hydrogen breath test", "type": "in vivo, human", "details": "12 doses of 0.3 mg/kg every 6 hours intravenous; 12 normal subjects not receiving opioids; mean±SD; baseline mean 101.3±29.4 minutes; P<0.05", "experimental": "as §1"}, "[3]": {"details": "white crystalline powder; cited from earlier work"}, "[4]": {"tested_on": "patients with constipation-predominant IBS", "details": "16 mg three times a week over eight weeks, cited from earlier work"}, "[5]": {"tested_on": "subjects with IBS of the constipation-predominant and alternating types", "details": "1 mg twice daily for 8 weeks; 25 subjects; cited from earlier work"}, "patients with IBS": {"tested_on": "patients with IBS", "details": "0.4 mg intravenously; 50 patients; versus placebo; cited from earlier work"}}}
{"smiles": "C[N@+]1(CC2CC2)CC[C@]23c4c5ccc(O)c4O[C@H]2C(=O)CC[C@@]3(O)[C@H]1C5", "note": "[methylnaltrexone, N-methyl-naltrexone bromide]", "values": [{"measurement": "adverse effects", "setting": "normal subjects [1]", "value": "No significant adverse effects"}, {"measurement": "oral-cecal transit time after 3 days of treatment", "setting": "normal subjects [2]", "value": "82.5 ± 20.7", "unit": "min"}, {"measurement": "solubility in water", "setting": "[3]", "value": "freely soluble in water"}]}
{"smiles": "C=C1CCC2(O)C3Cc4ccc(OC5OC(C(=O)O)C(O)C(O)C5O)c5c4C2(CCN3CC2CC2)C1O5", "note": "(stereo not shown) [nalmefene glucuronide]", "values": [{"measurement": "gut transit time", "setting": "[4]; patient reported", "value": "decreased"}, {"measurement": "stool frequency", "setting": "[4]; patient reported", "value": "increased"}, {"measurement": "abdominal pain or bloating", "setting": "[4]", "value": "did not reduce"}, {"measurement": "stool consistency", "setting": "[4]", "value": "not improved"}]}
{"smiles": "C=CCN1CC[C@]23c4c5ccc(O)c4O[C@H]2C(=O)CC[C@@]3(O)[C@H]1C5", "note": "[naloxone]", "values": [{"measurement": "adequate symptom relief versus placebo", "setting": "[5]", "value": "not statistically significantly different"}, {"measurement": "subjective ratings such as severity ratings and pain scores", "setting": "[5]", "value": "Marginal but non-statistically significant improvements"}, {"measurement": "degree of muscle spasm and relative intensity of pain", "setting": "patients with IBS", "value": "not associated with any objective or subjective evidence of beneficial effect"}]}
